Remaining binding data for three compounds are collected here from patent US11208412B2 (DAEGU-GYEONGBUK MEDICAL INNOVATION FOUNDATION, priority 2017, dated 2021).

Assay in all cases: Kinase selectivity, DiscoverX scanMAX Kinase assay panel (% control)
Holding throughout (type): binding

Assay [1] concerns the target T1, kinases of the scanMAX Kinase assay panel (Homo sapiens, UniProt Q99683).
T1 construct: purchased DiscoverX Co. (contract measurement) scanMAX Kinase assay panel
T1 sequence (Q99683 1-1374): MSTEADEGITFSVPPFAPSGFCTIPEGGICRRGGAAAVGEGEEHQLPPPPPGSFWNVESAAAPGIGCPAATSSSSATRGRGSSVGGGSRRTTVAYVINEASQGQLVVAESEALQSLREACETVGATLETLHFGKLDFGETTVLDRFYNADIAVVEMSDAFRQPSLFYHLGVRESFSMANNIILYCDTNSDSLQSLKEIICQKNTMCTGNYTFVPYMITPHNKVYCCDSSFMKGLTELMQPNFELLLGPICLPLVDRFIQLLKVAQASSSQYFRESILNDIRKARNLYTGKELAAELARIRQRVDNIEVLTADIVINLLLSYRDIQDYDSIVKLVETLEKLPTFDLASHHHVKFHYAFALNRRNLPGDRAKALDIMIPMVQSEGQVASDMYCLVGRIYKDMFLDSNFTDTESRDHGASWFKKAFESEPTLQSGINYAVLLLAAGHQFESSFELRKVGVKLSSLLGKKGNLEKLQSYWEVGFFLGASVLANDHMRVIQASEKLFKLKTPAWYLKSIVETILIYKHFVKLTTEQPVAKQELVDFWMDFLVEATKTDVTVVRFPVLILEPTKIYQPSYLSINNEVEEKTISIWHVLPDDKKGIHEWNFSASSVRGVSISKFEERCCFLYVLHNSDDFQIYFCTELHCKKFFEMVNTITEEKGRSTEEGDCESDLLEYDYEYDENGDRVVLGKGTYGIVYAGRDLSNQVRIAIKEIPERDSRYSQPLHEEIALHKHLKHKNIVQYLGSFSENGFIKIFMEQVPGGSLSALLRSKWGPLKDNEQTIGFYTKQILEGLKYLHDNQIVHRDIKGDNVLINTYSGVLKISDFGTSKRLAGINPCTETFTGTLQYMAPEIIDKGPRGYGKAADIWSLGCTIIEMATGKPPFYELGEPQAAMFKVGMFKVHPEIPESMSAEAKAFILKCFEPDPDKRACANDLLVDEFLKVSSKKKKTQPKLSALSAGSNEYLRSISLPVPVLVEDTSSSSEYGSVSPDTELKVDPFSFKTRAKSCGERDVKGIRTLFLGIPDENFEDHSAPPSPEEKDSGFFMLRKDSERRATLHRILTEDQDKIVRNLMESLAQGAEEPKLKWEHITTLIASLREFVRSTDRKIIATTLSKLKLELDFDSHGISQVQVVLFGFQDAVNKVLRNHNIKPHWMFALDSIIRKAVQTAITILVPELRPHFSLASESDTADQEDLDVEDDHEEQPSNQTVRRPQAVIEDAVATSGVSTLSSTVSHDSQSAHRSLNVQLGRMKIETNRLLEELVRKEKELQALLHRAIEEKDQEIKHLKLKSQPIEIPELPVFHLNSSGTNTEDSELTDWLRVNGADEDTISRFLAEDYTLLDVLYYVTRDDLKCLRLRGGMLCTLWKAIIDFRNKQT
To be noted: ASK1; 1 uM. In outline:
(§1)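 A 1 uM DMSO solution of compound was applied across the panel kinases, and results were expressed as % control relative to DMSO (100%) and a positive control (0%).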

Assay [2] addresses T2, kinases of the scanMAX Kinase assay panel (Homo sapiens, UniProt P10721, L576P).
T2 construct: purchased DiscoverX Co. (contract measurement) scanMAX Kinase assay panel
The settings on record: KIT(L576P); 1 uM. Put shortly:
as §1

Assay [3] addresses T3, kinases of the scanMAX Kinase assay panel (Homo sapiens, UniProt Q96PY6).
T3 construct: purchased DiscoverX Co. (contract measurement) scanMAX Kinase assay panel
T3 sequence (Q96PY6 1-1258): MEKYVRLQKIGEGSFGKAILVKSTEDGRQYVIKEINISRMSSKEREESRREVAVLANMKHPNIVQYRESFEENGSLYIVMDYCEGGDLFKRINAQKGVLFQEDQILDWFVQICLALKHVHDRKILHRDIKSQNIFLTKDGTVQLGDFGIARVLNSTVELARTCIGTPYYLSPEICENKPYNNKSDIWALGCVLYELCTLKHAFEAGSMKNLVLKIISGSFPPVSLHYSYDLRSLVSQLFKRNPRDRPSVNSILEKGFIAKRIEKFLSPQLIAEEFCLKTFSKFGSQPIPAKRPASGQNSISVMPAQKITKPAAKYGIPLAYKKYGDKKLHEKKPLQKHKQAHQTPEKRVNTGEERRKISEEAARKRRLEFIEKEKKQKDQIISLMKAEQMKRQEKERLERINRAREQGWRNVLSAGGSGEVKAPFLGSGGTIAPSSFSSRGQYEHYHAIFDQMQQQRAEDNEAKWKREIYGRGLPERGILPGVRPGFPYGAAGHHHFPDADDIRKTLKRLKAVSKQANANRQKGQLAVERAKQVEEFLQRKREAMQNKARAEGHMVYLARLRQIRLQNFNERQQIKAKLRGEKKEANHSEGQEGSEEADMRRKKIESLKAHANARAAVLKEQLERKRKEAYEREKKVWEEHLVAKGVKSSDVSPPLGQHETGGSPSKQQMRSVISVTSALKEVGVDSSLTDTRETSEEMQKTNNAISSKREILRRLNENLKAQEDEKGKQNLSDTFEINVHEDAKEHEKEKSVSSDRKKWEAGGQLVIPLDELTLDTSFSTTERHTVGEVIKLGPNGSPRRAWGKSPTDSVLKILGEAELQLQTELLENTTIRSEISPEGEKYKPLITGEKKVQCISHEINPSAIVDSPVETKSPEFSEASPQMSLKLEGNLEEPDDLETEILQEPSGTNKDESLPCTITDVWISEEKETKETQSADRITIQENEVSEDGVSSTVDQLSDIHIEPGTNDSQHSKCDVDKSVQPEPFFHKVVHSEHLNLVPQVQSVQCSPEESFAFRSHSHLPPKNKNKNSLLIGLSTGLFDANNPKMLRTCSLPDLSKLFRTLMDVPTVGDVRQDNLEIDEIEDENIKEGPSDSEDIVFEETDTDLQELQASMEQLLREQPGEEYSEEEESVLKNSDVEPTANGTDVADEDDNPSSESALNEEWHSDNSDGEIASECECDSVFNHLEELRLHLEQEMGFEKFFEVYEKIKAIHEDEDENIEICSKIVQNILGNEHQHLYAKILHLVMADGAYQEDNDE
To be noted: NEK1; 1 uM. Put shortly:
as §1

Structures are written as SMILES.

T2 sequence (P10721 26-976 L576P): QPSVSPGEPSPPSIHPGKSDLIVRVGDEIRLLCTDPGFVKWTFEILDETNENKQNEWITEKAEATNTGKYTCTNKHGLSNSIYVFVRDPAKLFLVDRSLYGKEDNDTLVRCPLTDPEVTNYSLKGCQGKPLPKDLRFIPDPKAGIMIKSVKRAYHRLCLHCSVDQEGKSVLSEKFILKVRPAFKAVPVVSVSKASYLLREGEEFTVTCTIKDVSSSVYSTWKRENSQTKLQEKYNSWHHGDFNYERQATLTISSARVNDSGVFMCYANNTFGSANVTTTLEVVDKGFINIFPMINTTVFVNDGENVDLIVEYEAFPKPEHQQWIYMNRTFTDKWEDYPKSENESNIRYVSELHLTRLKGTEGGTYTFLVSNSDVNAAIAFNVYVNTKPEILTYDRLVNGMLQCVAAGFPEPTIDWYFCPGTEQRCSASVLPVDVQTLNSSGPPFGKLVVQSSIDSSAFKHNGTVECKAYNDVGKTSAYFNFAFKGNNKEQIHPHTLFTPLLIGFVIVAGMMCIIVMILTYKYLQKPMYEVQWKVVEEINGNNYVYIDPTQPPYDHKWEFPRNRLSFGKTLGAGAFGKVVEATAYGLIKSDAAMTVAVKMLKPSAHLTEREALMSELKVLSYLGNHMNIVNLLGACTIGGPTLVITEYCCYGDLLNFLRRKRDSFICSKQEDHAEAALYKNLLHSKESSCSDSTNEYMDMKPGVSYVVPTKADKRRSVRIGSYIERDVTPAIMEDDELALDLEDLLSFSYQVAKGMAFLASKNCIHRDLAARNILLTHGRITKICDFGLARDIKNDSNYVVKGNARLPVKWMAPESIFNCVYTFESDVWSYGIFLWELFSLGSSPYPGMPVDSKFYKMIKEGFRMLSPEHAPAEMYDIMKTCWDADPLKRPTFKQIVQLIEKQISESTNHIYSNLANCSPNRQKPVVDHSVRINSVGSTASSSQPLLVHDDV

On to `CC1(Nc2nc(Nc3cnn([C@H]4CCN(C5COC5)C[C@@H]4F)c3Cl)nc3[nH]cc(C#N)c23)CC1` [Example 52, 2-((5-chloro-1-((3S,4S)-3-fluoro-1-(oxetane-3-yl)piperidine-4-yl)-1H-pyrazole-4-yl)amino)((1-methylcyclopropyl)amino)-7H-pyrrolo[2,3-d]pyrimidine-5-carbonitrile], for which the results for the remaining binding at 1 µM in assay [1], in assay [2] and in assay [3] were 1.8%, 0% and 80%, respectively.
In the case of `CCNc1nc(Nc2ccc(C(=O)N3CCC(N4CCOCC4)CC3)cc2OC)nc2[nH]cc(C(F)(F)F)c12` [Example 104, (4-((4-(ethylamino)-5-(trifluoromethyl)-7H-pyrrolo[2,3-d]pyrimidine-2-yl)amino)-3-methoxyphenyl)(4-morpholinopiperidine-1-yl)methanone], the remaining binding at 1 µM in assay [1] is 82%; in assay [2], 47%; in assay [3] it was 93%.
In the same order, the values of `CNc1nc(Nc2ccc(C(=O)N3CCOCC3)cc2OC)nc2[nH]cc(C#N)c12` [Example 1, 2-((2-methoxy-4-(morpholine-4-carbonyl)phenyl)amino)-4-(methylamino)-7H-pyrrolo[2,3-d]pyrimidine-5-carbonitrile] are 57%, 41% and 94%.
